For test [1], the system named is normal human dermal fibroblasts in culture (NHDF). As to the kind of experiment: Effect of D-ribose on in vitro skin cell respiration (BD Oxygen Biosensor System). In kind it is cell-based. As to conditions: 0.05% D-ribose, after 2 hours of contact. The procedure:
The inventors measured the effect of D-ribose on the mitochondrial and cytosolic respiration of normal human dermal fibroblasts in culture (NHDF). The cells used are fibroblasts cultured at 37° C., 5% CO2, in DMEM medium, 10% FCS (foetal calf serum). The NHDF cultured in monolayer are placed in suspension and distributed in the wells of a special plate of the “BD Oxygen Biosensor System” kit. The bottom of the well is constituted by a membrane on which a molecule is grafted the fluorescence of which is inhibited by the oxygen dissolved in the incubation medium. The fluorescence increases in proportion to the oxygen consumed by the cells. 0.05% D-ribose is added in six wells. The intensity of fluorescence is measured in kinetic mode. The rate of respiration is calculated from measurements of the intensity of fluorescence.

Test [2] concerns normal human epidermal fibroblasts in culture. Briefly: Effect of D-ribose on in vitro production of ATP by skin cells under hypoxia. Conditions: 0.05% D-ribose, after 6 hours of severe hypoxia (oxygen <2%), 24 h pre-treatment. Format: cell-based. The procedure: The inventors measured the effect of D-ribose on the production of ATP by the normal human epidermal fibroblasts in culture, under conditions of hypoxia. The cellules used are flask inoculations of normal human epidermal fibroblasts in DMEM medium with 10% FCS, incubation at 37° C., 5% CO2 and RH>95% up to 80% confluency. On Day 1, a first measurement of the level of ATP is taken on the untreated, unstressed NHDF. Pre-treatment for 24 hours with 0.05% of ribose versus an untreated control condition, 2 series in hexaplicate according to conditions. On Day 2, before the induction of hypoxia: stopping a series in order to measure the ATP level before hypoxia over all conditions (treated and untreated). The cells of the 2nd series were placed in suspension, the culture medium was renewed by DMEM 10% FCS supplemented with Hepes buffer (to maintain the pH at physiological conditions during hypoxia) and with EDTA (to prevent cell agglutination). The cells are placed in a incubator adjusted to 37° C., RH>95% the atmosphere of which has previously been replaced with nitrogen. Incubation for 6 hours under conditions of severe hypoxia (oxygen <2%) in the presence of 0.05% D-ribose versus an untreated control condition. Recovery of the cells and measurement of the quantity of ATP in the treated and untreated cells.

For `O=C[C@H](O)[C@H](O)[C@H](O)CO` [D-ribose], in test [1], the “increase in the cytosolic respiration” value is on record as 37% and the “increase in the mitochondrial respiration” value amounted to 31%. Besides, the ATP level re-established in test [2] is recorded as 19%.

Values taken from US20070231288A1, “COSMETIC USE OF D-RIBOSE AND METHOD THEREOF” (LM Cosmetics, priority 2006, published 2007).
